In patent US20240325319A1, “INHIBITORS OF AMYLOID BETA OLIGOMERIZATION AND THERAPEUTIC USES THEREOF” (Northwestern University, priority 2021, published 2024):
Several values for one entry are separate records, joined by “and”; a condition that tells them apart may be missing. Equal values may be shown once. Entries after “also recorded” stand apart in the source; their conditions may differ.

Legend:
Aβ42 = molecular target: T1, Aβ42 (Homo sapiens, UniProt P05067); assay: AβO formation from Aβ monomer in the absence of cells (dot blot, coverslips, fresh or conditioned media); format: biochemical
T1 construct: then treated with amyloid beta 1-42 (Aβ) monomer
T1 sequence (P05067 672-713): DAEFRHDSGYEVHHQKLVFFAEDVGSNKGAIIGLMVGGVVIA
Procedure: FIG. 5. A) NU-9 and Aβ were combined in F12 media, in the absence of cells, and incubated at 37° C. B) The concentration of AβOs was probed with NU2 antibody via dot blot after 24 hours in the conditions containing 3 μM NU-9 with or without Aβ.
FIG. 6. In dishes without cells, but in conditions that mimicked cell culture, 3 μM NU-9 and 500 nM Aβ42 for 30 minutes fixed with 3.7% formaldehyde and stained for AβOs (NU2, green) and mounted on slides before imaging at 63×.
FIG. 9. The effect of NU-9 requires the presence of cells. Conditioned media was collected from mature hippocampal neuron. DMSO control (Control), Aβ monomer (Aβ), or NU-9 and then Aβ (NU-9+Aβ in cond. media) were added, then concentration of AβOs were analyzed by dot blot. Conditioned media was also collected from neurons treated with NU-9, then Aβ was added to this (Media from NU-9 in cells+Aβ). […] Standard curve was created in media using 0-1000 fmol AβOs. The dot blot was labelled with NU2 (anti-AβO).
FIG. 10. […] (Conditioned Media) A dot blot probed with NU2 was used to measure AβO abundance in solutions of conditioned media to which DMSO vehicle (control), Aβ, and NU-9 followed by Aβ were added for 30 min each. The bottom row corresponds to samples in which cells were treated with NU-9 for 30 min, then extracellular media was removed, and Aβ was added to the media for 30 min. The standard curve at the top was made from 0-1000 fmol preformed AβOs. (Fresh Media) A dot blot probed with NU2 was used to measure AβO abundance in solutions of culture media to which DMSO vehicle (control), Aβ, and NU-9 (3-300 μM) followed by Aβ were added for 30 min each. Each of these solutions was prepared in triplicate. The standard curve at the top was made from 0-1000 fmol preformed AβOs.
In the absence of cells, NU-9 has no effect on AβO formation. […] Next, a follow-up experiment was conducted using conditions that more closely mimicked those of cell culture. Coverslips were coated, as usual for cell culture, with poly-D-lysine, and then placed into culture dishes with media. No cells were added. Then 3 μM NU-9 and 500 nM AβOs were added for 30 min. In this assay, the previous result was replicated.
Instead, NU-9 exerts an effect at the cell membrane or intracellularly.

cathepsin L = cathepsin L (Homo sapiens, UniProt P07711); assay: Purified cathepsin L enzyme activity (Z-FR-AMC to 7-AMC); format: biochemical; conditions: 0.0003-150 μM NU-9
Sequence of cathepsin L (P07711 114-333, species assumed): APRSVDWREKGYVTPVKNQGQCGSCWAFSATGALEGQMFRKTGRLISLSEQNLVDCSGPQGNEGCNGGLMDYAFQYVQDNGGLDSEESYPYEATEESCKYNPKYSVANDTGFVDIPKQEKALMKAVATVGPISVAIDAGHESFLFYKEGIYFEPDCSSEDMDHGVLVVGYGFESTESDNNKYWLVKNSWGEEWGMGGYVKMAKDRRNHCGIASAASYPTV
Procedure: FIG. 26. A) 0.0003-150 μM NU-9 was combined with purified cathepsin L enzyme in the presence of the cathepsin L substrate Z-FR-AMC. Cathepsin L enzyme activity was measured by the rate of 7-AMC production by fluorescence. Percent change in rate was quantified in the graph. […] B) Mature hippocampal neurons were treated with NU-9 for 30 minutes, then Magic Red was used to monitor intracellular cathepsin L activity. Cells were treated in 3 wells, and 9-22 images were analyzed per condition.
No effect of 0.0003-150 μM NU-9 was observed on the cathepsin L activity as measured by the production rate of 7-AMC from Z-FR-AMC by purified cathepsin L enzyme.

total Aβ species = assay: Total Aβ species in neuronal cultures (6E10 immunofluorescence); format: cell-based, rat; conditions: NU-9 3 μM, 30 min, then Aβ monomer 500 nM
Procedure: FIG. 12. […] Mature hippocampal neurons were treated with NU-9 (3 μM, 30 min), then with Aβ monomer (500 nM, 30 min). These were labelled with 6E10 (anti-total Aβ, green) and MAP2 (anti-dendrite). Total number of Aβ particles per images as well as fluorescence intensity of Aβ signal (IntDen) was quantified).
To follow up on this, we treated neurons with NU-9 (3 μM, 30 min) followed by Aβ monomer (500 nM, 30 min) and attempted to observe total Aβ species by dot blot. […] So, instead of using dot blot, we used immunofluorescence, labelling treated neurons for total Aβ species. Using this protocol, we were able to avoid interaction of the antibody with cell culture media, allowing for specific labelling.

AβOs bound to neurons [1] = assay: AβOs bound to dendrites of hippocampal neurons treated with Aβ42 monomer (immunofluorescence, NU2/NU4); format: cell-based, rat
Procedure: Neurons were pre-treated with 3 μM NU-9 for 30 min, then treated with Aβ42 monomer for 24 hr. Cells were fixed with 3.7% formaldehyde and stained for AβOs (NU4, green), tau phosphorylated at Ser396 (pSer396, red) and mounted on slides before imaging.
Cells were fixed with 3.7% formaldehyde and stained for AβOs (NU4, green), tau phosphorylated at Thr205 (pThr205, red), and nuclei (DAPI, blue) and mounted on slides before imaging.
FIG. 3. Neurons were pre-treated with 3 μM NU-9 for 30 min, then treated with Aβ42 monomer for 30 min. Cells were fixed with 3.7% formaldehyde and stained for AβOs (NU2, green), β-II tubulin (TUBB3, red), and nuclei (DAPI, blue) and mounted on slides before imaging.
FIG. 4. E18 hippocampal neurons were cultured until 21 div and pre-treated with 3, 15, or 30 μM NU-9 for 30 minutes, followed by treatment with 500 nM Aβ42 for 30 minutes. Cells were fixed with 3.7% formaldehyde and stained for AβOs (NU2, green), […] (red) and nuclei (DAPI, blue), and mounted on slides before imaging at 63×.
NU-9 reduces the number of amyloid beta oligomers bound to neurites. Primary rat hippocampal neurons in cell culture were pre-treated with NU-9 for 30 minutes and then treated with amyloid beta 1-42 (Aβ) monomer. […] To characterize the dose-response effect of NU-9 on AβO formation, cells were pretreated with increasing doses of NU-9 (3, 15, and 30 μM), and then treated with Aβ for 30 minutes.
The decrease was 81% (p=0.0005). We further characterized the effect of NU-9, to narrow down potential candidate mechanisms for this effect.

cathepsin B = molecular target: T2, cathepsin B (Rattus norvegicus, UniProt P00787); assay: Cathepsin B activity in hippocampal neurons (cell-based, Magic Red); conditions: neurons treated with NU-9 30 minutes
T2 construct: endogenous in cells
T2 sequence (P00787 80-126 limits assumed): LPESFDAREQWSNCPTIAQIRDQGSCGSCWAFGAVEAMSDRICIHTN
T2 sequence (P00787 129-333 limits assumed): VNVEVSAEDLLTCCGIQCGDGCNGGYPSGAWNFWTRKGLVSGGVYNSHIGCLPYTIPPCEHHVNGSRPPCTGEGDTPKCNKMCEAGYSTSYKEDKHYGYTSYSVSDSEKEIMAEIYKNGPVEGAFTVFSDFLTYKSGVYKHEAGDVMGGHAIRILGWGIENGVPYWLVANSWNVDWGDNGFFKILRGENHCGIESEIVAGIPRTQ

AβOs bound to neurons [2] = assay: AβOs bound to dendrites of hippocampal neurons treated with Aβ42 monomer (immunofluorescence, NU2/NU4); format: cell-based, rat; remark: listed apart in the source

Compound: C[C@H](Oc1cc(C(F)(F)F)cc(C(F)(F)F)c1)C1CC(=O)CC(=O)C1 [NU-9, (S)-5-(1-(3,5-bis(trifluoromethyl)phenoxy)ethyl)cyclohexane-1,3-dione]
- AβO concentration by NU2 dot blot, no cells (Aβ42; 3 μM NU-9 and Aβ in F12 media, 37° C., 24 hours): no change in AβO formation was observed; also recorded: No significant difference was observed
- AβOs formed from Aβ monomer in conditioned media of untreated cells (Aβ42; NU-9 3 μM, 30 min added to media, Aβ monomer 500 nM, 30 min): did not reduce the number of AβOs formed from Aβ monomer; also recorded: Aβ was not reduce in any treatment condition
- AβO formation from Aβ monomer in fresh media (dot blot) (Aβ42; NU-9 3-300 μM followed by Aβ, 30 min each): did not reduce ABO formation directly; also recorded: does not reduce AβO formation from Aβ monomer in cell-free solution
- AβOs formed from Aβ monomer in conditioned media from cells treated with NU-9 (Aβ42; cells treated 3 μM NU-9 30 min, media removed, Aβ added 30 min): also did not reduce the number of AβOs formed from Aβ monomer in the absence of cells
- number of AβOs bound to coverslips, no cells (Aβ42; poly-D-lysine coverslips in media, 3 μM NU-9 and 500 nM Aβ42, 30 min): did not affect AβO formation; also recorded: did not significantly affect the number of AβOs bound to coverslips
- cathepsin L activity (production rate of 7-AMC from Z-FR-AMC) (cathepsin L): No effect
- total Aβ species (particles, IntDen) (total Aβ species): does not reduce total Aβ species observable in neuronal cultures
- number of AβOs bound at dendrites (AβOs bound to neurons [1]; 3 μM NU-9 pre-treatment 30 min, then Aβ42 monomer 24-26 hr): significantly decreased the number of AβOs bound at dendrites; also recorded: able to reduce AβO binding in neurons treated with Aβ monomer
- AβOs bound to neurons / formation of neuron-binding AβOs (AβOs bound to neurons [1]; 3 μM NU-9 pre-treatment 30 min, then Aβ monomer 500 nM, 30 min): mitigated the formation of neuron-binding AβOs; also recorded: significantly reduced AβOs bound to neurons; also recorded: significantly reduced the formation of neuron binding AβOs
- dose-response of AβO suppression (visual analysis of images) (AβOs bound to neurons [1]; 3, 15, or 30 μM NU-9 30 min, then 500 nM Aβ42 30 min): reduced more extensively at higher doses of NU-9; also recorded: More extensive suppression of AβOs was observed at higher concentrations of NU-9
- reduction in AβOs at synapses compared to treatment with Aβ monomer alone (AβOs bound to neurons [1]; NU-9 3 μM, 30 min prior to Aβ monomer 500 nM, 30 min or 24 h): 81% and 55-80%
- number of AβOs bound to neurons (AβOs bound to neurons [1]; NU-9 30 min pre-treatment, Aβ monomer 30 min or 24 h): reduces the number of bound amyloid beta oligomers; also recorded: dramatically decreased the number of Aβ oligomers (AβOs) bound to neurons; also recorded: marked reduction in AβOs at synapses; also recorded: effectively reduced the number of pathological species of AβOs
- cathepsin B activity in hippocampal neurons (cathepsin B): not observed to alter cathepsin B activity
- effect of NU-9 on neuron-binding AβOs in the presence of lysosome inhibitor (AβOs bound to neurons [2]; 100 nM bafilomycin A 30 min, NU-9 3 μM 30 min, Aβ monomer 500 nM 30 min): unable to do so; also recorded: abolished in the presence of a lysosome acidification inhibitor
- AβOs bound to dendrites when NU-9 is washed out prior to Aβ monomer (AβOs bound to neurons [2]; NU-9 pre-treatment, washout, then Aβ 500 nM, 30 min): leads to a reduction in AβOs bound to dendrites; also recorded: maintained even when NU-9 was washed out; also recorded: reduced the number of AβOs bound to dendrites; also recorded: remains effective even when it is washed out
